These results are taken from US7629447B2, “Dideoxynucleoside derivatives” (Wako Pure Chemical Industries, Ltd., priority 2006, dated 2009).

[5NF] = 5'-amino-2'-fluoro-2',5'-dideoxyuridine unit, linked through its 5'-amino group; d = 2'-deoxy (DNA)

The subject of series [1] is complementary DNA oligonucleotide (SEQ ID NO:7 or SEQ ID NO:8). Kind of series: Thermal stability test, measurement of Tm (DNA/DNA match duplex). The settings on record: for Tm / Tm of the duplex DNA/DNA compared with that of T-1 (control) and T-2 (control), in words / ΔTm: duplex DNA/DNA; for Tm: 3 μM each oligonucleotide, 10 mM sodium phosphate buffer, 100 mM sodium chloride, pH 7.0, 20 to 90° C. at 0.5° C. per minute, absorbance at 260 nm; for Tm of the duplex DNA/DNA compared with that of T-1 (control) and T-2 (control), in words: versus oligonucleotides of only naturally occurring nucleosides; for ΔTm: difference from the matching control (T-1 or T-2). Type of series: binding. An excerpt: Using commercially available dT-CE phosphoramidite and dA-CE phosphoramidite (both of them were produced by Glen research Corp.) as materials, also using 3′-dT-CPG (1 μmol) packed in a column (produced by Glen research Corp.) as a starting material, oligonucleotides were synthesized according to the same method as in Example 2, in order to obtain oligonucleotides which were each complementary to UNF-1 and UNF-2 obtained in Example 2, respectively. The base sequences of oligonucleotides complementary to UNF-1 (SEQ ID NO:7) and complementary to UNF-2 (SEQ ID NO:8) are shown in Table 2 below.
Using UNF-1 and UNF-2, which were synthesized in Example 2, and complementary oligonucleotides thereto shown in Table 2 as materials, duplexes DNA/DNA were prepared according to the conventional method (R. Kierzek et al., Biochemistry, 1986, vol. 25, pp. 7840-7846).
Using the obtained duplex DNA/DNA, thermal stability test was carried out according to the conventional method.
(§1) That is, using a UV-2450 SPECTROPHOTOMETER equipped with a temperature-variable device (produced by Shimadzu Corp.), the oligonucleotides were placed in 8 consecutive 10 mm cells under the nitrogen atmosphere, and 10 mM of sodium phosphate buffer and 100 mM of sodium chloride (pH 7.0) were added thereto so that the concentration of each oligonucleotide became 3 μM, then the temperature was increased from 20° C. to 90° C. with a climbing rate of 0.5° C. per minute, and absorbance at 260 nm were measured.
A duplex DNA/DNA formed between TN-1 synthesized in Comparative Example 2 and a complementary oligonucleotide thereto represented by SEQ ID NO:7, and a duplex formed DNA/DNA between TN-2 synthesized in Comparative Example 2 and a complementary oligonucleotide thereto represented by SEQ ID NO:8 were synthesized according to the same method as in Example 3. The thermal stability of these duplex nucleic acids obtained was examined according to the same method as in Example 3.
In addition, a duplex DNA/DNA formed between T-1 (control) synthesized in Comparative Example 2 and a complementary oligonucleotide thereto represented by SEQ ID NO:7, and a duplex DNA between T-2 (control) synthesized in Comparative Example 2 and a complementary oligonucleotide thereto represented by SEQ ID NO:8 were synthesized according to the same method as in Example 3. Thermal stability of these duplex nucleic acids obtained was examined according to the same method as in Example 3. The results were shown together in FIG. 1.

In series [2] the test system is complementary RNA oligonucleotide (SEQ ID NO:9 or SEQ ID NO:10). Briefly: Thermal stability test, measurement of Tm (DNA/RNA match duplex). The settings on record: for Tm / Tm of the duplex DNA/RNA compared with that of T-1 (control) and T-2 (control), in words / ΔTm: duplex DNA/RNA; for Tm: same method as Example 3 (3 μM, 10 mM sodium phosphate buffer, 100 mM sodium chloride, pH 7.0); for Tm of the duplex DNA/RNA compared with that of T-1 (control) and T-2 (control), in words: versus oligonucleotides of only naturally occurring nucleosides; for ΔTm: difference from the matching control (T-1 or T-2). It is filed as binding. Here is the method: as §1
Using commercially available rA-CE phosphoramidite, rU-CE phosphoramidite and rC-CE phosphoramidite as materials, also using 3′-dU-CPG (all of them were produced by Glen research Corp.) as a starting material, complementary oligonucleotides to each of UNF-1 and UNF-2 which were prepared in Example 2, were synthesized according to the same method as in Example 2.
Using UNF-1 and UNF-2, which were synthesized in Example 2, and the complementary oligonucleotides thereto shown in Table 2 as materials, a duplex DNA/RNA was prepared according to the conventional method (R. Kierzek et al., Biochemistry, 1986, vol. 25, pp. 7840-7846).
Using the obtained duplexes DNA/RNA, thermal stability test was carried out according to the same method as in Example 3.
A duplex DNA/RNA formed between TN-1 synthesized in Comparative Example 2 and a complementary oligonucleotide thereto represented by SEQ ID NO:9, and a duplex DNA/RNA formed between TN-2 synthesized in Comparative Example 2 and a complementary oligonucleotide thereto represented by SEQ ID NO:10 were synthesized according to the same method as in Example 4. Thermal stabilities of these duplex nucleic acids obtained were examined according to the same method as in Example 4.
In addition, a duplex DNA/RNA formed between T-1 (control) synthesized in Comparative Example 2 and a complementary oligonucleotide thereto represented by SEQ ID NO:9, and a duplex DNA formed between T-2 (control) synthesized in Comparative Example 2 and a complementary oligonucleotide thereto represented by SEQ ID NO:10 were synthesized according to the same method as in […]. Thermal stabilities of these duplex nucleic acids obtained were examined according to the same method as in Example 4.

Usually Tm stands for the temperature at which the thermal transition is half complete.

In the case of “T-1 (control): SEQ ID NO:5, 5′-d(AAG GAA ATG AGG AAA GA)-3′; oligonucleotide comprising only naturally occurring nucleosides (AAGGAAATGAGGAAAGA; unmodified DNA)”, the figures for the Tm in series [1] and in series [2] were 52.9 °C and 42.1 °C, respectively.

As for “T-2 (control): SEQ ID NO:6, 5′-d(AAG GAA TTG AGG AAA GA)-3′; oligonucleotide comprising only naturally occurring nucleosides (AAGGAATTGAGGAAAGA; unmodified DNA)”, the melting temperature (Tm) in series [1] was 53.5 °C; in series [2], 44 °C.

Turning to “TN-1: SEQ ID NO:3, 5′-(AAG GAA AT^NG AGG AAA GA)-3′; T^N = introduced 5′-aminothymidine (comparative) (AAGGAAANGAGGAAAGA; 5'-aminothymidine, chemistry not fully specified)”, in series [1], the “Tm of the duplex DNA/DNA compared with that of T-1 (control) and T-2 (control), in words” value was “lower”; the midpoint of thermal melting (Tm) amounted to 50.6 °C; the ΔTm is −2.3. In addition, in series [2], the “Tm of the duplex DNA/RNA compared with that of T-1 (control) and T-2 (control), in words” value is reported as “lower”; the ΔTm was −4.4; the Tm is 37.7 °C.

For “TN-2: SEQ ID NO:4, 5′-(AAG GAA T^NT^NG AGG AAA GA)-3′; T^N = introduced 5′-aminothymidine (comparative) (AAGGAANNGAGGAAAGA; 5'-aminothymidines, chemistry not fully specified)”, in series [1], the “Tm of the duplex DNA/DNA compared with that of T-1 (control) and T-2 (control), in words” value is reported as “lower”; the Tm turned out to be 48.3 °C; the ΔTm is given as −5.2. For the same substance, in series [2], the “Tm of the duplex DNA/RNA compared with that of T-1 (control) and T-2 (control), in words” value is “lower”; the ΔTm is given as −5.0; the Tm worked out at 39 °C.

For the substance “UNF-1: SEQ ID NO:1, 5′-(AAG GAA AU^NFG AGG AAA GA)-3′; U^NF = introduced 5′-amino-2′-fluoro-2′,5′-dideoxyuridine (AAGGAAAUGAGGAAAGA; sugars from the 5' end d7 [5NF]1 d9, backbone not given here)”, in series [1], the “Tm of the duplex DNA/DNA compared with that of T-1 (control) and T-2 (control), in words” value is “equivalent”; the Tm was 51.8 °C; the ΔTm is −1.1. For the same substance, in series [2], the “Tm of the duplex DNA/RNA compared with that of T-1 (control) and T-2 (control), in words” value is given as “equivalent”; the ΔTm is reported as −0.2; the Tm is 41.9 °C.

With “UNF-2: SEQ ID NO:2, 5′-(AAG GAA U^NFU^NFG AGG AAA GA)-3′; U^NF = introduced 5′-amino-2′-fluoro-2′,5′-dideoxyuridine (AAGGAAUUGAGGAAAGA; sugars from the 5' end d6 [5NF]2 d9, backbone not given here)”, the “Tm compared with that of UNF-1, in words” value in series [1] (duplex DNA/DNA (Table 3), two UNFs versus one UNF) is given as “higher”. In addition, in series [1], the “Tm of the duplex DNA/DNA compared with that of T-1 (control) and T-2 (control), in words” value was “equivalent”; the midpoint of thermal melting (Tm) is 52.1 °C; the ΔTm is −1.4. For the same substance, the “Tm compared with that of UNF-1, in words” value in series [2] (duplex DNA/RNA (Table 5), two UNFs versus one UNF) was “higher”. Moreover, in series [2], the “Tm of the duplex DNA/RNA compared with that of T-1 (control) and T-2 (control), in words” value is given as “equivalent”; the ΔTm was −0.5; the melting temperature (Tm) worked out at 43.5 °C.
